From patent publication US20240016781A1, “TREATMENT OF KRAS MUTANT CANCERS” (MEI Pharma, Inc., priority 2020, published 2024)
Several values for one entry are separate records, joined by “and”; a condition that tells them apart may be missing. Equal values may be shown once. Read-outs that look alike come from different tables or passages of the source.

Columns and labels:
Test in all cases: 72-hour CellTiter-Glo 2.0 growth inhibition screen (single agent, 9x9 combination dose matrix);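 on Best CI Level: inhibition effect level at which the best CI was calculated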
Assay type in all cases: cell-based
AsPC-1 = tested on: AsPC-1;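 on Best CI Level: inhibition effect level at which the best CI was calculated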
Gp2D = details: for EC50: GP2d; for EC50 / Response Area / Emax: Colorectal; for Response Area / Emax: Gp2D
NCI-H358 = details: for EC50: NCI-H358, 72 h
SW48 KRAS (G12C/+) = details: for Response Area: Colorectal
SW837 = details: for EC50: SW837, 72 h
[1] = AsPC-1 (KRAS G12D), enhancer + MEI-522 (Voruciclib), 72 h;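 on Best CI Level: inhibition effect level at which the best CI was calculated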
[2] = enhancer combined with MEI-522 (Voruciclib), AsPC-1 (Pancreas), 72 hours, inhibition data
[3] = Gp2D (KRAS G12D), enhancer + MEI-522 (Voruciclib), 72 h;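 on Best CI Level: inhibition effect level at which the best CI was calculated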
[4] = enhancer combined with MEI-522 (Voruciclib), Gp2D (Colorectal), 72 hours, inhibition data
[5] = NCl-H358 (KRAS G12C), enhancer + MEI-522 (Voruciclib), 72 h
[6] = enhancer combined with MEI-522 (Voruciclib), NCl-H358 (Lung), 72 hours, inhibition data
[7] = SW48 KRAS (G12C/+), enhancer + MEI-522 (Voruciclib), 72 h
[8] = enhancer combined with MEI-522 (Voruciclib), SW48 KRAS (G12C/+) (Colorectal), 72 hours, inhibition data
[9] = Homo sapiens, SW837, Colorectal, growth inhibition (GI) curve, single agent, 72 h
[10] = SW837 (KRAS G12C), enhancer + MEI-522 (Voruciclib), 72 h;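 on Best CI Level: inhibition effect level at which the best CI was calculated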
[11] = enhancer combined with MEI-522 (Voruciclib), SW837 (Colorectal), 72 hours, inhibition data

C=CC(=O)N1CCN(c2nc(=O)n(-c3c(C)ccnc3C(C)C)c3nc(-c4c(O)cccc4F)c(F)cc23)[C@@H](C)C1 [AMG510]
Best CI (AsPC-1; [1]): 0.47
Bliss Volume (AsPC-1; [1]): 2.91
HSA volume (AsPC-1; [1]): −3.63
Loewe Volume (AsPC-1; [1]): 0.38
Synergy Score (AsPC-1; [1]): 0.82
Response Area (AsPC-1; AsPC-1, Pancreas, Additional Single Agent Responses (inhibition, % I), 72 h): 0.00
Response Area (AsPC-1; AsPC-1, Pancreas, growth inhibition (GI), AUC, single agent, 72 h): 0.00
EC50 (AsPC-1; Homo sapiens, ASPC1, AsPC-1, Pancreas, Additional Single Agent Responses (inhibition, % I), 72 h): 3000 nM
Emax (AsPC-1; Homo sapiens, ASPC1, AsPC-1, Pancreas, Additional Single Agent Responses, 72 h, read-out: Max Response (% I)): 6%
Emax (AsPC-1; Homo sapiens, ASPC1, AsPC-1, Pancreas, growth inhibition (GI), single agent, 72 h, read-out: Max Response (% GI)): 8%
Best CI (AsPC-1; [2]): 0.64
Best CI Level (AsPC-1; [2]): 20
Bliss Volume (AsPC-1; [2]): 1.95
HSA volume (AsPC-1; [2]): −2.52
Loewe Volume (AsPC-1; [2]): 0.26
Synergy Score (AsPC-1; [2]): 0.32
EC50 (Gp2D; 72 h, Additional Single Agent Responses (inhibition, % I)): 2560 nM
EC50 (Gp2D; 72 h, growth inhibition (GI) curve, single agent): 2550 nM
Best CI (Gp2D; [3]): 0.47
Bliss Volume (Gp2D; [3]): 1.60
HSA volume (Gp2D; [3]): −1.47
Loewe Volume (Gp2D; [3]): 1.40
Synergy Score (Gp2D; [3]): 2.14
Response Area (Gp2D; Additional Single Agent Responses (inhibition, % I), 72 h): 0.42
Emax (Gp2D; Additional Single Agent Responses, 72 h, read-out: Max Response (% I)): 13%
Response Area (Gp2D; growth inhibition (GI), AUC, single agent, 72 h): 0.55
Emax (Gp2D; growth inhibition (GI), single agent, 72 h, read-out: Max Response (% GI)): 18%
Best CI (Gp2D; [4]): 0.90
Best CI Level (Gp2D; [4]): 20
Bliss Volume (Gp2D; [4]): 0.54
HSA volume (Gp2D; [4]): −1.21
Loewe Volume (Gp2D; [4]): 0.47
Synergy Score (Gp2D; [4]): 0.43
EC50 (NCI-H358; Homo sapiens, NCl-H358, Lung, Additional Single Agent Responses (inhibition, % I), 72 h): 8.5 nM
EC50 (NCI-H358; Homo sapiens, NCl-H358, Lung, growth inhibition (GI) curve, single agent, 72 h): 9.4 nM
IC50 (NCI-H358; Homo sapiens, NCI-H358, NCl-H358, Lung, Additional Single Agent Responses (inhibition, % I), 72 h): 14.2 nM
Emax (NCI-H358; Homo sapiens, NCI-H358, NCl-H358, Lung, Additional Single Agent Responses, 72 h, read-out: Max Response (% I)): 79%
GI50 (NCI-H358; Homo sapiens, NCI-H358, NCl-H358, Lung, growth inhibition (GI) curve, single agent, 72 h): 8.8 nM
Emax (NCI-H358; Homo sapiens, NCI-H358, NCl-H358, Lung, growth inhibition (GI), single agent, 72 h, read-out: Max Response (% GI)): 108%
Best CI (NCI-H358; [5]): 0.51
Bliss Volume (NCI-H358; [5]): 4.55
HSA volume (NCI-H358; [5]): 2.53
Loewe Volume (NCI-H358; [5]): 2.07
Synergy Score (NCI-H358; [5]): 3.63
Response Area (NCI-H358; NCl-H358, Lung, Additional Single Agent Responses (inhibition, % I), 72 h): 3.87
Response Area (NCI-H358; NCl-H358, Lung, growth inhibition (GI), AUC, single agent, 72 h): 5.18
Best CI (NCI-H358; [6]): 0.51
Best CI Level (NCI-H358; [6]): 20
Bliss Volume (NCI-H358; [6]): −0.42
HSA volume (NCI-H358; [6]): 1.90
Loewe Volume (NCI-H358; [6]): 1.20
Synergy Score (NCI-H358; [6]): 1.07
HSA volume (SW48 KRAS (G12C/+)): 5.42 and 3.57
Loewe Volume (SW48 KRAS (G12C/+)): 4.73
EC50 (SW48 KRAS (G12C/+); Homo sapiens, SW48, 72 h): 2.1 nM
Emax (SW48 KRAS (G12C/+); Homo sapiens, SW48, 72 h, read-out: Max Response (% GI)): 36%
Emax (SW48 KRAS (G12C/+); Homo sapiens, SW48, 72 h, read-out: Max Response (% I)): 29%
Response Area (SW48 KRAS (G12C/+); SW48 KRAS (G12C/+), Additional Single Agent Responses (inhibition, % I), 72 h): 1.47
Response Area (SW48 KRAS (G12C/+); SW48 KRAS (G12C/+), growth inhibition (GI), AUC, single agent, 72 h): 1.78
Best CI (SW48 KRAS (G12C/+); [7]): 0.36
Synergy Score (SW48 KRAS (G12C/+); [7]): 5.97
Best CI (SW48 KRAS (G12C/+); [8]): 0.62
Best CI Level (SW48 KRAS (G12C/+); [8]): 60
EC50 (SW837; Homo sapiens, SW837, Colorectal, Additional Single Agent Responses (inhibition, % I), 72 h): 9.9 nM
EC50 (SW837; [9]): 10.4 nM
Emax (SW837; Homo sapiens, SW837, Colorectal, Additional Single Agent Responses, 72 h, read-out: Max Response (% I)): 37%
GI50 (SW837; [9]): 162 nM
Emax (SW837; Homo sapiens, SW837, Colorectal, growth inhibition (GI), single agent, 72 h, read-out: Max Response (% GI)): 56%
Best CI (SW837; [10]): 0.72
Bliss Volume (SW837; [10]): 7.24
HSA volume (SW837; [10]): 6.16
Loewe Volume (SW837; [10]): 6.02
Synergy Score (SW837; [10]): 6.03
Response Area (SW837; SW837, Colorectal, Additional Single Agent Responses (inhibition, % I), 72 h): 1.79
Response Area (SW837; SW837, Colorectal, growth inhibition (GI), AUC, single agent, 72 h): 2.67
Best CI (SW837; [11]): 0.64
Best CI Level (SW837; [11]): 65
Bliss Volume (SW837; [11]): 2.98
HSA volume (SW837; [11]): 4.27
Loewe Volume (SW837; [11]): 4.27
Synergy Score (SW837; [11]): 2.77
